For eleven molecules, IC50 results are on record in patent US20090298820A1, “3-SUBSTITUTED-1H-PYRROLO[2,3-B]PYRIDINE AND 3-SUBSTITUTED-1H-PYRROLO[3,2-B]PYRIDINE COMPOUNDS, THEIR USE AS MTOR KINASE AND PI3 KINASE INHIBITORS, AND THEIR SYNTHESES” (Wyeth, priority 2008, published 2009).

What all share (type): biochemical
One experiment has as its target PI3Kα (Homo sapiens, UniProt P42336). Description: PI3K-alpha fluorescence polarization assay. The note with it: read-out: PI3Kα Median IC50. (Fluorescence polarisation rises when a labelled molecule tumbles more slowly, as on binding a larger partner.)
The next experiment has as its target PI3Kγ (Homo sapiens, UniProt P48736). Description: PI3K-gamma fluorescence polarization assay. The note with it: read-out: PI3Kγ Median IC50.
The next experiment addresses mTOR (Homo sapiens, UniProt P42345). Description: mTOR enzyme assay (DELFIA format, His6-S6K substrate). Particulars: read-out: mTOR Kinase Median IC50.

Sequence of PI3Kα (P42336 whole entry, species assumed): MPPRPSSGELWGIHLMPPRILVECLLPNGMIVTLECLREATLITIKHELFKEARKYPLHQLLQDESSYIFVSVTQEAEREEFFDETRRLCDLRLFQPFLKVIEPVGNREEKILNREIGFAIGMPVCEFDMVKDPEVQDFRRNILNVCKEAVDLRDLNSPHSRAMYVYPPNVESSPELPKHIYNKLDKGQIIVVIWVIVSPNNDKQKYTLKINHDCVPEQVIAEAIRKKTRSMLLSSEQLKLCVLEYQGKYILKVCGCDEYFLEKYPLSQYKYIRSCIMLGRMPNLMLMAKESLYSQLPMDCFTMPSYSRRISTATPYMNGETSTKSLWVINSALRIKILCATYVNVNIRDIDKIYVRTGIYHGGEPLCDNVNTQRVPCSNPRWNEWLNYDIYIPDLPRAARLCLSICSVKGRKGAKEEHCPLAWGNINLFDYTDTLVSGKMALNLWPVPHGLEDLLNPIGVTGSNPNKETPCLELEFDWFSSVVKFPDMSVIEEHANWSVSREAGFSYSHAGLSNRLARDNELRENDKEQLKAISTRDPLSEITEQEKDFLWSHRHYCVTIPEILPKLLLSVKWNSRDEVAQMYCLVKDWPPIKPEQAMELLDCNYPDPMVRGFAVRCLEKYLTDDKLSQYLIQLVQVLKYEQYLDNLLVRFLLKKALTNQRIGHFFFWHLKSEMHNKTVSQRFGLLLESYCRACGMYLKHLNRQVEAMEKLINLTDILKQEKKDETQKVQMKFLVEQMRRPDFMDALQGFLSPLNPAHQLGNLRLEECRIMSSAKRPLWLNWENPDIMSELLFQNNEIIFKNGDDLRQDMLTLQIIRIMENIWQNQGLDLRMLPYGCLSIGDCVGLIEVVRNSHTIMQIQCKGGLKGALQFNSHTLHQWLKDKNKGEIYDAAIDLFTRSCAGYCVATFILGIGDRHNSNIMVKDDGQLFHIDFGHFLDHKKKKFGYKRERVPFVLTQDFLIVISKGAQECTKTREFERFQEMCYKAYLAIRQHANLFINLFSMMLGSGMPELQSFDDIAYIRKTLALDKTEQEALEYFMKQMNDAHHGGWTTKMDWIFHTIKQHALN
Sequence of PI3Kα (P27986 whole entry partner, species assumed): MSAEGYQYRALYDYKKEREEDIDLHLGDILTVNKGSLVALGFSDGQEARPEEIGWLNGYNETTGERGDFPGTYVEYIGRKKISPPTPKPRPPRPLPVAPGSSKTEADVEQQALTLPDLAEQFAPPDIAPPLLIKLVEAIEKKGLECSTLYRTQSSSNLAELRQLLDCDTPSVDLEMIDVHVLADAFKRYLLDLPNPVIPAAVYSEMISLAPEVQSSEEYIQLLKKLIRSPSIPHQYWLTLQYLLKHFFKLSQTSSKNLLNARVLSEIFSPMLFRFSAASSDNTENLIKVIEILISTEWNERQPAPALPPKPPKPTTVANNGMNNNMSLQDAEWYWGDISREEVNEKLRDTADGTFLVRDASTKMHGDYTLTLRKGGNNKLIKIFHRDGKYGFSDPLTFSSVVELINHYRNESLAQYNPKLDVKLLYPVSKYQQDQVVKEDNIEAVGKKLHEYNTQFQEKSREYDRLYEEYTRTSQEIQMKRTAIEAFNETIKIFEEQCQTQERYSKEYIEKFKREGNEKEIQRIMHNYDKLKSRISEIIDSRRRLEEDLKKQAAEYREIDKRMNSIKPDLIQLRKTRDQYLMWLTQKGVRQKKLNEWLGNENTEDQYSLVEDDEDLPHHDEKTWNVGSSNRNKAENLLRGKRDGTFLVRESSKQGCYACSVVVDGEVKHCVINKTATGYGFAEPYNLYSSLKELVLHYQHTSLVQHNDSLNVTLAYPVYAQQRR
Sequence of PI3Kγ (P48736 whole entry, species assumed): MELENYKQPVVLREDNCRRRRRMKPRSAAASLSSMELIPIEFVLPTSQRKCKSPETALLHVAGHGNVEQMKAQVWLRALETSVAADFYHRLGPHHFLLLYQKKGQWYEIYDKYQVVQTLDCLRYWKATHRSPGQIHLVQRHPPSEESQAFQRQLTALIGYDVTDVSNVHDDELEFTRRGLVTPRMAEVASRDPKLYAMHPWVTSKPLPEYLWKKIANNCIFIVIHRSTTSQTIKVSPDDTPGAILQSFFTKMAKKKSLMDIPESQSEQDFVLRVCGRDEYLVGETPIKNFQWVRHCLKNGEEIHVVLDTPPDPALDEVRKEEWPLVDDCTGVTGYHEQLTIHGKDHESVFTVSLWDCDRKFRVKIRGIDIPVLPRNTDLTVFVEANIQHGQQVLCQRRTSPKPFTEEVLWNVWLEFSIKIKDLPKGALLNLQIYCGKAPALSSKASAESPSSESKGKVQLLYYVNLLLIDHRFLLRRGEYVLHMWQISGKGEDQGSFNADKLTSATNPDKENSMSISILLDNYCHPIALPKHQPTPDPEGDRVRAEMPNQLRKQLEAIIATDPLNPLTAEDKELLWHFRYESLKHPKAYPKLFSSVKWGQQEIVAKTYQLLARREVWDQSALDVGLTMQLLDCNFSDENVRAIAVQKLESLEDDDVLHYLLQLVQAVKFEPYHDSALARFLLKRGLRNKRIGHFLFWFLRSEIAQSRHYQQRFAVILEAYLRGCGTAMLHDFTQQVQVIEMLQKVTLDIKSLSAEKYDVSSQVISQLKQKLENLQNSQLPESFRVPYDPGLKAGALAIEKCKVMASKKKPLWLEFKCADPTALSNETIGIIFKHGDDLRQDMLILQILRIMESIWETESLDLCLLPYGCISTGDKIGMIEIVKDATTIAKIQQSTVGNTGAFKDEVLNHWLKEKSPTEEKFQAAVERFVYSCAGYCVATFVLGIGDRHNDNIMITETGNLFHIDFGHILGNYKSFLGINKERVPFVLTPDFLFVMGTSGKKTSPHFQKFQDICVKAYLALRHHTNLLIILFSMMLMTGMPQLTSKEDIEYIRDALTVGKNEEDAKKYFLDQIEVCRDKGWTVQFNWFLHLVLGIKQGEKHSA

Turning to `Cn1cc(C=C2Oc3c(ccc(O)c3O)C2=O)c2cccnc21` [Compound 2, 6,7-dihydroxy-2-[(1-methyl-1H-pyrrolo[2,3-b]pyridin-3-yl)methylene]-1-benzofuran-3(2H)-one], the IC50 (as a rule, the midpoint of a concentration-inhibition curve) on PI3Kα was 2.34 µM. `COc1ccc2c(n1)c(C=C1Oc3c(ccc(O)c3O)C1=O)cn2C` [Compound 4, 6,7-dihydroxy-2-[(5-methoxy-1-methyl-1H-pyrrolo[3,2-b]pyridin-3-yl)methylene]-1-benzofuran-3(2H)-one]: the 50% inhibitory concentration (IC50) is 8.5 µM on PI3Kγ and 0.676 µM on PI3Kα. As to `CN1CCN(CCCn2cc(C=C3Oc4cc(O)cc(O)c4C3=O)c3cccnc32)CC1` [Compound 6, 4,6-dihydroxy-2-({1-[3-(4-methylpiperazin-1-yl)propyl]-1H-pyrrolo[2,3-b]pyridin-3-yl}methylene)-1-benzofuran-3(2H)-one], the IC50 is more than 10 µM on PI3Kγ and 5.89 µM at PI3Kα. Consider `O=C1C(=Cc2cn(CCCN3CCOCC3)c3ncccc23)Oc2cc(O)cc(O)c21` [Compound 7, 4,6-dihydroxy-2-{[1-(3-morpholin-4-ylpropyl)-1H-pyrrolo[2,3-b]pyridin-3-yl]methylene}-1-benzofuran-3(2H)-one], for which the IC50 at PI3Kγ was more than 10 µM; at PI3Kα, 0.921 µM. For the molecule `CN1CCN(CCCn2cc(C=C3Oc4c(ccc(O)c4O)C3=O)c3cccnc32)CC1` [Compound 8, 6,7-dihydroxy-2-({1-[3-(4-methylpiperazin-1-yl)propyl]-1H-pyrrolo[2,3-b]pyridin-3-yl}methylene)-1-benzofuran-3(2H)-one], the half-maximal inhibitory concentration (IC50) is 9 µM at PI3Kγ and 0.203 µM at PI3Kα. With `O=C1C(=Cc2cn(CCCN3CCOCC3)c3ncccc23)Oc2c1ccc(O)c2O` [Compound 9, 6,7-dihydroxy-2-{[1-(3-morpholin-4-ylpropyl)-1H-pyrrolo[2,3-b]pyridin-3-yl]methylene}-1-benzofuran-3(2H)-one], the IC50 at PI3Kγ stood at 9.17 µM; at PI3Kα, 0.135 µM. `O=C1C(=Cc2cn(CCCN3CCN(CCO)CC3)c3ncccc23)Oc2c1ccc(O)c2O` [Compound 10, 6,7-dihydroxy-2-[(1-{3-[4-(2-hydroxyethyl)piperazin-1-yl]propyl}-1H-pyrrolo[2,3-b]pyridin-3-yl)methylene]-1-benzofuran-3(2H)-one]: the IC50 at PI3Kγ and on PI3Kα was more than 10 µM each time. `Cn1cc(/C=C2\Oc3cc(O)cc(O)c3C2=O)c2c(-c3ccc(OC(F)(F)F)cc3)ccnc21` [Compound 15, (2Z)-4,6-dihydroxy-2-({1-methyl-4-[4-(trifluoromethoxy)phenyl]-1H-pyrrolo[2,3-b]pyridin-3-yl}methylene)-1-benzofuran-3(2H)-one]: on mTOR, the IC50 worked out at 0.001 µM. In the case of `CN1CCN(c2ccnc3c2c(/C=C2\Oc4cc(O)cc(O)c4C2=O)cn3C)CC1` [Compound 44, (2Z)-4,6-dihydroxy-2-{[1-methyl-4-(4-methylpiperazin-1-yl)-1H-pyrrolo[2,3-b]pyridin-3-yl]methylene}-1-benzofuran-3(2H)-one], the half-inhibitory concentration (IC50) at PI3Kγ was found to be 0.2 µM; on PI3Kα it was 0.044 µM. Consider `Cn1cc(/C=C2\Oc3cccc(O)c3C2=O)c2c(-c3ccc(C(=O)N4CCOCC4)cc3)ccnc21` [Compound 128, (2Z)-4-hydroxy-2-({1-methyl-4-[4-(morpholin-4-ylcarbonyl)phenyl]-1H-pyrrolo[2,3-b]pyridin-3-yl}methylene)-1-benzofuran-3(2H)-one], for which the concentration for half-maximal inhibition (IC50) on mTOR turned out to be 0.0005 µM. In the case of `Cn1cc(/C=C2\Oc3ccc(NC(=O)NC4CCCCC4)cc3C2=O)c2c(N3CC4CCC(C3)O4)ccnc21` [Compound 236, 1-cyclohexyl-3-[(2Z)-2-{[1-methyl-4-(8-oxa-3-azabicyclo[3.2.1]oct-3-yl)-1H-pyrrolo[2,3-b]pyridin-3-yl]methylidene}-3-oxo-2,3-dihydro-1-benzofuran-5-yl]urea], the figures for the half-inhibitory concentration (IC50) at PI3Kγ and on PI3Kα were 2.97 µM and 1.47 µM, respectively.
